# Experimental data from patent publication US8026243B2, “[4,5′]Bipyrimidinyl-6,4′-diamine derivatives as protein kinase inhibitors” (Novartis AG, priority 2006, dated 2011).
# Molecular target: T1, Ba/F3-TEL-FGFR3 cells (Homo sapiens, UniProt P22607)
# T1 construct: fused on or other part: The N-terminal oligomerising part of TEL (ETV6) is fused before the intracellular kinase part of FGFR3; P41212 (Transcription factor ETV6)
# Test: FGFR3 cellular assay: proliferation of transformed Ba/F3-TEL-FGFR3 cells (AlamarBlue)
# Type: cell-based
# Conditions: 48 hours incubation, class symbols
# In short: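 Ba/F3-TEL-FGFR3 cells (5000/well) in RPMI 1640 with 10% FBS, exposed to twelve-point 1:3 compound dilutions for 48 h. Proliferation read by AlamarBlue (10% final, 4 h at 37 °C), fluorescence Ex530/Em580; IC50 from linear regression of percent inhibition.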
# T1 sequence (P22607 whole entry, change not shown, the tested form may be a part): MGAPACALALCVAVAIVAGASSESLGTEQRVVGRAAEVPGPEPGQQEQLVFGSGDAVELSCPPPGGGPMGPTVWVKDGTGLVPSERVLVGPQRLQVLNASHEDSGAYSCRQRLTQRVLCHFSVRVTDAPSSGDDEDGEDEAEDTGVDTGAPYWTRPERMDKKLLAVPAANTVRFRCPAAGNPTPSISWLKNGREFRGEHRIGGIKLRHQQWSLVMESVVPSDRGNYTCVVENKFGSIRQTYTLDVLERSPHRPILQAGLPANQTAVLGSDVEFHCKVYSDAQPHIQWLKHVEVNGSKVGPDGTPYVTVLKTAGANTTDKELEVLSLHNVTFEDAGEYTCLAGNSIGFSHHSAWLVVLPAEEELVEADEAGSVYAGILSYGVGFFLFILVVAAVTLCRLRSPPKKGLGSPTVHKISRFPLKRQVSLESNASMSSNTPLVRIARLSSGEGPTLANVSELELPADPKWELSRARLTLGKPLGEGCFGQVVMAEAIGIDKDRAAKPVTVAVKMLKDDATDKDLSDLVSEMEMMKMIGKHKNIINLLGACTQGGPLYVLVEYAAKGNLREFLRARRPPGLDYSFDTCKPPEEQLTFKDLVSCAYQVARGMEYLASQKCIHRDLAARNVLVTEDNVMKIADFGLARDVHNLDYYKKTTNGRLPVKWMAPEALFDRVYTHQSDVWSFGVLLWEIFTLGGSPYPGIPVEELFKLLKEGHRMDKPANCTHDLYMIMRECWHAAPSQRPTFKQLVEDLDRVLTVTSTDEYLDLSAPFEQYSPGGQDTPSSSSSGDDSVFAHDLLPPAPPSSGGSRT
row,Structure (SMILES),GI50 [µM]
1,"CCNC(=O)c1cc(OC)c(Cl)c(Nc2ncncc2-c2cc(Nc3ccc(N4CCN(CC)CC4)cc3)ncn2)c1Cl [Compound 36, 2,4-Dichloro-N-ethyl-3-{6-[4-(4-ethyl-piperazin-1-yl)-phenylamino]-[4,5′]bipyrimidinyl-4′-ylamino}-5-methoxy-benzamide]",< 0.1
2,"COc1cc(OC)c(Cl)c(Nc2ncncc2-c2cc(Nc3cccc(C(C)O)c3)ncn2)c1F (centres unmarked) [Compound 77, 1-{3-[4′-(2-Chloro-6-fluoro-3,5-dimethoxy-phenylamino)-[4,5′]bipyrimidinyl-6-yl-amino]-phenyl}-ethanol]",< 0.1
3,"COc1cc(OC)c(F)c(Nc2ncncc2-c2cc(Nc3ccc(CCN4CCOCC4)cn3)ncn2)c1F [Compound 85, N4′-(2,6-Difluoro-3,5-dimethoxy-phenyl)-N6-[5-(2-morpholin-4-yl-ethyl)-pyridin-2-yl]-[4,5′]bipyrimidinyl-6,4′-diamine]",< 0.1
4,"COc1cc(OC)c(Cl)c(Nc2ncncc2-c2cc(Nc3ccc(CN4CCN(C(=O)CO)CC4)cn3)ncn2)c1F [Compound 88, 1-(4-{6-[4′-(2-Chloro-6-fluoro-3,5-dimethoxy-phenylamino)-[4,5′]bipyrimidinyl-6-ylamino]-pyridin-3-ylmethyl}-piperazin-1-yl)-2-hydroxy-ethanone]",< 0.1
5,"COc1cc(OC)c(Cl)c(Nc2nccnc2-c2cc(Nc3cc(CN4CCOCC4)ccn3)ncn2)c1F [Compound 97, {6-[3-(2-chloro-3,5-dimethoxy-6-fluoro phenylamino)-pyrazin-2-yl]-pyrimidin-4-yl}-(4-morpholin-4-ylmethyl-pyridin-2-yl)-amine]",< 0.1
6,"Nc1cc(-c2nccnc2Nc2c(Cl)cccc2Cl)ncn1 [Compound 106, 6-(3-(2,6-dichlorophenylamino)pyrazin-2-yl)pyrimidin-4-amine]",< 0.1
7,"CCN1CCN(Cc2ccc(Nc3cc(-c4cncnc4Nc4c(F)c(OC)cc(OC)c4F)ncn3)nc2)CC1 [Compound 64, N4′-(2,6-Difluoro-3,5-dimethoxy-phenyl)-N6-[5-(4-ethyl-piperazin-1-ylmethyl)-pyridin-2-yl]-[4,5′]bipyrimidinyl-6,4′-diamine]",< 0.1
8,"COc1cc(OC)c(Cl)c(Nc2ncncc2-c2cc(Nc3ccc(CCN4CCOCC4)cn3)ncn2)c1C [Compound 86, N4′-(2-Chloro-3,5-dimethoxy-6-methyl-phenyl)-N6-[5-(2-morpholin-4-yl-ethyl)-pyridin-2-yl]-[4,5′]bipyrimidinyl-6,4′-diamine]",0.25 to 0.5
9,"COc1cc(OC)c(F)c(Nc2ncncc2-c2cc(Nc3ccc(CN4CCN(C(C)=O)CC4)cn3)ncn2)c1F [Compound 66, 1-(4-{6-[4′-(2,6-Difluoro-3,5-dimethoxy-phenylamino)-[4,5′]bipyrimidinyl-6-ylamino]-pyridin-3-ylmethyl}-piperazin-1-yl)-ethanone]",< 0.1
10,"COc1cc(Nc2ncncc2-c2cc(Nc3cc(CN4CCN(C)CC4)ccn3)ncn2)c(Cl)c(OC)c1 [Compound 39, N4′-(2-Chloro-3,5-dimethoxy-phenyl)-N6-[4-(4-methyl-piperazin-1-ylmethyl)-pyridin-2-yl]-[4,5′]bipyrimidinyl-6,4′-diamine]",0.1 to 0.25
11,"COc1cc(OC)c(Cl)c(Nc2nccnc2-c2cc(Nc3ccc(CN4CCOCC4)cn3)ncn2)c1F [Compound 95, {6-[3-(2-chloro-3,5-dimethoxy-6-fluoro phenylamino)-pyrazin-2-yl]-pyrimidin-4-yl}-(5-morpholin-4-ylmethyl-pyridin-2-yl)-amine]",< 0.1
12,"CCNC(=O)c1cc(OC)c(Cl)c(Nc2ncncc2-c2cc(Nc3ccc(CN4CCCC4)cn3)ncn2)c1Cl [Compound 35, 2,4-Dichloro-N-ethyl-5-methoxy-3-[6-(5-pyrrolidin-1-ylmethyl-pyridin-2-ylamino)-[4,5′]bipyrimidinyl-4′-ylamino]-benzamide]",< 0.1
13,"COc1cc(OC)c(Cl)c(Nc2ncncc2-c2cc(NCCCN3CCOCC3)ncn2)c1Cl [Compound 12, N4′-(2,6-Dichloro-3,5-dimethoxy-phenyl)-N6-(3-morpholin-4-yl-propyl)-[4,5′]bipyrimidinyl-6,4′-diamine]",0.1 to 0.25
14,"COc1cc(OC)c(Cl)c(Nc2ncncc2-c2cc(Nc3ccc(CN4CCN(CCO)CC4)cn3)ncn2)c1F [Compound 73, 2-(4-{6-[4′-(2-Chloro-6-fluoro-3,5-dimethoxy-phenylamino)-[4,5′]bipyrimidinyl-6-ylamino]-pyridin-3-ylmethyl}-piperazin-1-yl)-ethanol]",< 0.1
15,"CCN1CCN(c2ccc(Nc3cc(-c4cncnc4Nc4c(Cl)c(OC)cc(C(=O)OC)c4Cl)ncn3)nc2)CC1 [Compound 41, 2,4-Dichloro-3-{6-[5-(4-ethyl-piperazin-1-yl)-pyridin-2-ylamino]-[4,5′]bipyrimidinyl-4′-ylamino}-5-methoxy-benzoic acid methyl ester]",< 0.1
16,"CCN1CCN(Cc2ccc(Nc3cc(-c4cncnc4Nc4c(Cl)c(OC)cc(C(=O)NC5CC5)c4Cl)ncn3)nc2)CC1 [Compound 58, 2,4-Dichloro-N-cyclopropyl-3-{6-[5-(4-ethyl-piperazin-1-ylmethyl)-pyridin-2-ylamino]-[4,5′]bipyrimidinyl-4′-ylamino}-5-methoxy-benzamide]",< 0.1
17,"CCNC(=O)c1cc(OC)c(Cl)c(Nc2ncncc2-c2cc(Nc3cc(CN4CCOCC4)ccn3)ncn2)c1Cl [Compound 33, 2,4-Dichloro-N-ethyl-5-methoxy-3-[6-(4-morpholin-4-ylmethyl-pyridin-2-ylamino)-[4,5′]bipyrimidinyl-4′-ylamino]-benzamide]",< 0.1
